{"source": "patent US20250170153A1", "about": "“METHODS FOR THE TREATMENT OF ANXIETY DISORDER” (ANANDA SCIENTIFIC, INC., priority 2022, published 2025)", "key": {"[1]": {"assay": "Chemical characteristics of composition A′, concentrated and diluted forms", "type": "physicochemical", "method": "Several tests were conducted to determine the chemical characteristics of composition A′, both in concentrated and diluted forms. […] All liquid nanodomain droplets range in size from 5 to 20 nm. The pH of both the concentrate and diluted formulations is between 6.0 and 7.5."}, "[2]": {"conditions": "rat, 120 mg/kg dose; cited from earlier work"}}, "data": [{"smiles": "C=C(C)[C@@H]1CCC(C)=C[C@H]1c1c(O)cc(CCCCC)cc1O", "note": "[CBD, 2-(1R,6R)-3-methyl-6-prop-1-en-2-ylcyclohex-2-en-1-yl-5-pentylbenzene-1,3-diol]", "values": [{"measurement": "logP", "setting": "[1]", "result": 6}, {"measurement": "Association of CBD with formulation phases during storage", "setting": "[1]; both concentrated and diluted forms of composition A′", "result": "remained associated with the surfactant and lipid phases"}, {"measurement": "T1/2", "setting": "[2]", "result": "4 to 5", "unit": "h"}]}]}
